# Patent US20230190616A1, “COMPOUNDS USEFUL FOR THE TREATMENT AND/OR CARE OF THE SKIN, HAIR, NAILS AND/OR MUCOUS MEMBRANES” (LUBRIZOL ADVANCED MATERIALS, INC., priority 2018, published 2023)
# Experiments:
# [1] = tested on: human subcutaneous pre-adipocytes; assay: Lipid accumulation in coculture of young and old human subcutaneous pre-adipocytes (Adipored staining); type: cell-based; conditions: 0.01 mg/ml; for %LA (percentage of lipid accumulation): 12 days, coculture of donor cells, respect to coculture control = 100
# From the text: In vitro effect of PEP-22 and PEP-23 in lipid accumulation in human subcutaneous pre-adipocytes.
# Measurement of lipid accumulation in a coculture of young and old adipose cells indirectly evaluates the inhibition of SASP. A pool of old adipose cells has a higher number of senescent cells. When cocultured with young cells, lipid accumulation observed is below the theoretically expected levels due to a senescence induction effect of SASP from old to young adipocytes.
# Induction of lipid accumulation by the peptides of the invention is evaluated by lipid fluorescent staining with Adipored® Assay Reagent. The aim of this study is to investigate the capacity of peptide candidates to induce lipid accumulation in human subcutaneous adipocytes, and therefore prevent adipocytes senescence.
# Human subcutaneous pre-adipocytes (donors, Cell applications) cells are cocultured in 96-well plates at a density of 4×10^3 cells/well each age in Human Preadipocyte Growth Medium (Sigma). Monoculture of each age are seeded at a density of 8×10^3 cells/well as age lipid accumulation controls. After 24 hours incubation, differentiation of pre-adipocytes into adipocytes is induced by changing medium to fresh Human Preadipocyte Differentiation Medium (Promocell). At the same time, cocultured cells are treated with 0.01 mg/ml of peptides of the invention. Non-treated cocultured cells are used as basal control and monocultured young and old cells as age lipid accumulation controls. After 12 days of treatment and differentiation, cells are stained with Adipored® Assay Reagent (Lonza) following the manufacturer’s instructions. In brief, the plate is washed with Phosphate Buffer Saline (Sigma) and then Adipored® reagent and Hoechst 33342 (Life technologies) are added and incubated for 15 minutes at 37° C. Finally, fluorescence intensity and nuclei number are measured by Operetta (Perkin Elmer). Fluorescence is normalized by cell nuclei and results are represented respect to cocultured basal control. Abbreviations: % LA = Percentage of lipid accumulation; CC = Coculture control; YC = young control; OC = old control.
# [2] = tested on: human neuroblastoma cell line (SH-SY5Y); assay: Inhibition of noradrenaline (NA) release from human neuroblastoma cells, ELISA; type: cell-based; conditions: SH-SY5Y, respect to basal control, mean of 3 assays
# From the text: Inhibition of noradrenaline release from human neuroblastoma cells.
# Release of neurotransmitters by exocytosis in neuromuscular junctions from peripheral neurons to skeletal muscle allows muscle contraction. Face muscles are subject to said contraction and facial muscle contraction is more frequent around eyes, mouth and forehead than elsewhere in the face. With age, continuous release of neurotransmitters into neuromuscular junctions and decrease of elasticity contribute to the increase of facial wrinkles and permanent expression lines. Compounds able to block or decrease exocytosis on neuromuscular junction sites are thus good candidates for the cosmetic treatment of unaesthetic wrinkles. In vitro induction of the neurotransmitter Noradrenaline (NA) release in a human neuroblastoma cell line (SH-SY5Y) is considered a direct and reliable method for exocytosis measurement. The aim of this study is to evaluate the efficacy of the peptides of the invention on the inhibition of neuronal exocytosis by means of measuring the levels of NA release in SH-SY5Y cells by Enzyme-linked Immunosorbent Assay (ELISA).
# SH-SY5Y (ECACC) cells are seeded in 12-well plates at a density of 1×10^6 cells/well. After a 6-day culture, medium is removed from wells and cells are treated for 60 minutes with the peptides of the invention dissolved in Hank’s Balanced Salt Solution (HBSS, Life Technologies) at 1 and 2.5 mg/ml. Cells treated with HBSS alone are used as a basal control. To mobilize NA vesicles, supernatants are removed and 100 nM Tetradecanoylphorbol-13-acetate (TPA, Sigma) is dissolved in the presence of test items in HBSS or dissolved in HBSS alone in the case of the basal control. After this, solutions with TPA are removed and NA release is induced by the addition of 10 µM lonomycin (Epica) with 100 nM TPA dissolved in the presence of test items in HBSS or dissolved in HBSS alone in the case of the basal control. Afterwards, the medium in the wells, containing released NA, is collected and centrifuged. Supernatants obtained are used for quantification of NA by ELISA with noradrenalin ELISA kit (IBL International) following manufacturer’s instructions. In brief, direct sandwich ELISA is performed with a plate pre-coated with an anti-NA antibody. The color obtained after substrate addition is directly proportional to the amount of NA present in each condition tested. Absorbance is read in a microplate absorbance reader (Clariostar™, BMG) at 405 nm. The percentage of NA release for each condition is calculated respect to basal control.
Substance,Lipid accumulation in adipocytes compared to coculture basal control (in words) [1],%LA (percentage of lipid accumulation) [1] [%],% Released NA ([2]; 1 mg/ml) [%],% Released NA ([2]; 2.5 mg/ml) [%]
Ac-L-Arg-L-Arg-L-Gln-D-Met-L-Glu-L-Glu-NH2 [PEP-23],increase lipid accumulation,159.9,78.9,52.8
Ac-L-Arg-L-Arg-D-Gln-L-Met-L-Glu-L-Glu-NH2 [PEP-22],increase lipid accumulation,133.9,58.9,49.0
